In PMC8392382, “Flavonoids as Human Intestinal α-Glucosidase Inhibitors” (Foods, 2021):
Marks after values point to notes of the source that are not given here.

Columns and labels:
human isomaltase = target: T1, human isomaltase (Homo sapiens, UniProt P14410); assay: Isomaltase inhibition in Caco-2/TC7 cell-free extract, isomaltose as substrate, HPAE-PAD; type: biochemical; conditions: for 15% inhibitory concentration (IC15) Isomaltase / 25% inhibitory concentration (IC25) Isomaltase: isomaltose; for percent inhibition of isomaltase at maximum concentration tested: maximum concentration: acarbose 200, EGCG 1500, quercetin 200, quercetagetin 50, kaempferol 40, galangin 25 µM
T1 construct: an in vitro assay using Caco-2/TC7 cell extracts containing sucrase, maltase and isomaltase was conducted; endogenous in cells; host or cells: Caco-2/TC7 (human colon adenocarcinoma), 21 days post-confluence, crude cell-free extract
Protocol: (§1) Disaccharides and monosaccharides were analyzed by HPAE-PAD on the Dionex™ Integrion™ HPIC™ system (Thermo Fisher Scientific). Separation of the carbohydrates was achieved on a CarboPac PA210 column (2 × 150 mm), preceded by a CarboPac PA210 Guard column (2 × 30 mm), with the column and compartment temperatures maintained at 30 °C and 20 °C, respectively. […] Detection was performed using a gold working electrode and AgCl reference electrode at pH ~ 12.0, with a collection rate of 2.00 Hz using the “Gold, Carbo, Quad” waveform. […] A wash injection of only H2O while following the same multistep eluent gradient was performed at the end of every batch (12–14 samples). All injections were performed in duplicate and peak identification was achieved by comparing retention times to the standards. Dionex™ Chromeleon™ 7 Chromatography Data System, version 7.2.9 (Thermo Fisher Scientific, Waltham, MA, USA), was used to process the chromatograms, ensuring peaks were suitably integrated before recording peak area. Sugars were quantified from peak areas using standard curves, with the standards prepared in the same buffer as the samples.
(§2) To mimic intestinal digestion, an in vitro assay using Caco-2/TC7 cell extracts containing sucrase, maltase and isomaltase was conducted. Frozen cells were thawed, 1 mL ice-cold SPB added and then passed through a 21-G needle 15–20 times. The lysate was centrifuged at 14,000× g, 10 min at 4 °C and the supernatant containing cell-free extract (CFE) collected. Total protein concentration in the CFEs was determined by Bradford assay, using the Pierce Coomassie Bradford reagent and BSA standards (Thermo Fisher Scientific, Waltham, MA, USA).
(§3) Assay mixtures, total volume 250 µL, containing CFE (final protein concentration at 0.1–0.35 mg/mL), with or without various concentrations of inhibitors/flavonoids, were prepared and kept on ice. The enzyme reaction was initiated by the addition of ≥20 mM sucrose, maltose or isomaltose and immediately incubating in a 37 °C water bath for 10 min (or various time points during method setup and validation). Following incubation, the enzyme activity was terminated by incubating in a 96 °C water bath for a further 10 min. A positive control without any added inhibitor/flavonoid was simultaneously tested in each batch, and negative controls without enzymes or substrates were also assayed to evaluate the stability of the inhibitors/compounds. Samples were prepared for HPAE-PAD analysis as described in Section 2.3. Specific enzyme activities were determined (U/mg CFE protein) and expressed as a percentage of control enzyme activities accordingly.
(§4) Controls (CFE and substrate only) were prepared by replacing the volume of inhibitor with SPB. […] Estimation of inhibition values were determined in GraphPad Prism and the percentage of inhibition of the sample was calculated following Equation (7) below, where SA = specific activity:(7) Inhibition %=SAcontrol − SAsample/SAcontrol×100
(§5) Enzyme assays were performed at least once for CFEs from biological triplicates, with duplicate injections of each analyzed by HPAE-PAD. MS Excel (Microsoft, Redmond, WA, USA) was used for data processing and analysis. Final inhibition values were expressed as the percentage of control activity (%). The IC15, IC25 and IC50 values were calculated based on the plots created using GraphPad, using the dose-response inhibition (log (inhibitor) vs. normalized response—variable slope) model. The same software was used to determine the apparent Km and Vmax values under the enzyme–kinetic inhibition model, and for statistical analyses using non-parametric multiple comparisons tests. A difference was considered significant at p < 0.05 for all comparisons. All data are expressed as the mean ± SD or SEM, specified accordingly.

human sucrase = target: T2, human sucrase (Homo sapiens, UniProt P14410); assay: Sucrase inhibition in Caco-2/TC7 cell-free extract, sucrose as substrate, HPAE-PAD; type: biochemical; conditions: for IC50 / 15% inhibitory concentration (IC15) Sucrase / 25% inhibitory concentration (IC25) Sucrase: Caco-2/TC7 CFE, mean ± SEM, n = 3; for IC50: 20 mM sucrose, 10 min 37 °C, read-out: 50% inhibitory concentration (IC50) Sucrase; for 15% inhibitory concentration (IC15) Sucrase / 25% inhibitory concentration (IC25) Sucrase: sucrose; for percent inhibition of sucrase at maximum concentration tested: maximum concentration: acarbose 200, EGCG 1500, quercetin 200, quercetagetin 50, kaempferol 40, galangin 25 µM
T2 construct: an in vitro assay using Caco-2/TC7 cell extracts containing sucrase, maltase and isomaltase was conducted; endogenous in cells; host or cells: Caco-2/TC7 (human colon adenocarcinoma), 21 days post-confluence, crude cell-free extract
Protocol: as §1, §2, §3, §4, §5

human maltase = assay: Maltase inhibition in Caco-2/TC7 cell-free extract, maltose as substrate, HPAE-PAD; type: biochemical; conditions: for 15% inhibitory concentration (IC15) Maltase / 25% inhibitory concentration (IC25) Maltase / IC50: Caco-2/TC7 CFE, mean ± SEM, n = 3; for 15% inhibitory concentration (IC15) Maltase / 25% inhibitory concentration (IC25) Maltase: maltose; for percent inhibition of maltase at maximum concentration tested: maximum concentration: acarbose 200, EGCG 1500, quercetin 200, quercetagetin 50, kaempferol 40, galangin 25 µM; for IC50: 20 mM maltose, 10 min 37 °C, read-out: 50% inhibitory concentration (IC50) Maltase
Protocol: Disaccharides and monosaccharides were analyzed by HPAE-PAD on the Dionex™ Integrion™ HPIC™ system (Thermo Fisher Scientific). Separation of the carbohydrates was achieved on a CarboPac PA210 column (2 × 150 mm), preceded by a CarboPac PA210 Guard column (2 × 30 mm), with the column and compartment temperatures maintained at 30 °C and 20 °C, respectively. Eluent was generated using a Dionex™ EGC 500 KOH eluent generator cartridge with Dionex™ continuously regenerated-anion trap column 600, with eluent concentration following a multistep gradient: 12 mM for 12 min, 100 mM for 8 min and 12 mM for 12 min, at a flow rate of 0.2 mL/min and with a sample injection volume of 2.5 μL. Detection was performed using a gold working electrode and AgCl reference electrode at pH ~ 12.0, with a collection rate of 2.00 Hz using the “Gold, Carbo, Quad” waveform. The total run time per sample was 32 min, with 3 min allowed between analyses for sample injection by autosampler. A wash injection of only H2O while following the same multistep eluent gradient was performed at the end of every batch (12–14 samples). All injections were performed in duplicate and peak identification was achieved by comparing retention times to the standards. Dionex™ Chromeleon™ 7 Chromatography Data System, version 7.2.9 (Thermo Fisher Scientific, Waltham, MA, USA), was used to process the chromatograms, ensuring peaks were suitably integrated before recording peak area. Sugars were quantified from peak areas using standard curves, with the standards prepared in the same buffer as the samples.
as §2, §3
as §4, with “SPB. Activities of sucrase, maltase and isomaltase were considered as 100% (or 0% inhibition) in the absence of an inhibitor.” for “SPB.”
Enzyme assays were performed at least once for CFEs from biological triplicates, with duplicate injections of each analyzed by HPAE-PAD. MS Excel (Microsoft, Redmond, WA, USA) was used for data processing and analysis. Final inhibition values were expressed as the percentage of control activity (%). […]

[1] = tested on: human maltase expressed in yeast; assay: Inhibition of human maltase expressed in yeast (literature); type: biochemical; conditions: compared with this paper and ref 30
[2] = target: human maltase expressed in yeast; set-up: method as in PMID 32218677; conditions: cited from earlier work
yeast α-glucosidase = tested on: yeast α-glucosidase; set-up: method as in PMID 26212963, PMID 30245236, PMID 31007116, PMID 23137344; conditions: cited from earlier work
rat sucrase = conditions: cited from earlier work
[3] = set-up: method as in PMID 9414116; conditions: cited from earlier work
rat maltase = conditions: cited from earlier work
[4] = Caco-2/TC7 CFE, mean ± SEM, n = 3

T2 sequence (P14410 whole entry): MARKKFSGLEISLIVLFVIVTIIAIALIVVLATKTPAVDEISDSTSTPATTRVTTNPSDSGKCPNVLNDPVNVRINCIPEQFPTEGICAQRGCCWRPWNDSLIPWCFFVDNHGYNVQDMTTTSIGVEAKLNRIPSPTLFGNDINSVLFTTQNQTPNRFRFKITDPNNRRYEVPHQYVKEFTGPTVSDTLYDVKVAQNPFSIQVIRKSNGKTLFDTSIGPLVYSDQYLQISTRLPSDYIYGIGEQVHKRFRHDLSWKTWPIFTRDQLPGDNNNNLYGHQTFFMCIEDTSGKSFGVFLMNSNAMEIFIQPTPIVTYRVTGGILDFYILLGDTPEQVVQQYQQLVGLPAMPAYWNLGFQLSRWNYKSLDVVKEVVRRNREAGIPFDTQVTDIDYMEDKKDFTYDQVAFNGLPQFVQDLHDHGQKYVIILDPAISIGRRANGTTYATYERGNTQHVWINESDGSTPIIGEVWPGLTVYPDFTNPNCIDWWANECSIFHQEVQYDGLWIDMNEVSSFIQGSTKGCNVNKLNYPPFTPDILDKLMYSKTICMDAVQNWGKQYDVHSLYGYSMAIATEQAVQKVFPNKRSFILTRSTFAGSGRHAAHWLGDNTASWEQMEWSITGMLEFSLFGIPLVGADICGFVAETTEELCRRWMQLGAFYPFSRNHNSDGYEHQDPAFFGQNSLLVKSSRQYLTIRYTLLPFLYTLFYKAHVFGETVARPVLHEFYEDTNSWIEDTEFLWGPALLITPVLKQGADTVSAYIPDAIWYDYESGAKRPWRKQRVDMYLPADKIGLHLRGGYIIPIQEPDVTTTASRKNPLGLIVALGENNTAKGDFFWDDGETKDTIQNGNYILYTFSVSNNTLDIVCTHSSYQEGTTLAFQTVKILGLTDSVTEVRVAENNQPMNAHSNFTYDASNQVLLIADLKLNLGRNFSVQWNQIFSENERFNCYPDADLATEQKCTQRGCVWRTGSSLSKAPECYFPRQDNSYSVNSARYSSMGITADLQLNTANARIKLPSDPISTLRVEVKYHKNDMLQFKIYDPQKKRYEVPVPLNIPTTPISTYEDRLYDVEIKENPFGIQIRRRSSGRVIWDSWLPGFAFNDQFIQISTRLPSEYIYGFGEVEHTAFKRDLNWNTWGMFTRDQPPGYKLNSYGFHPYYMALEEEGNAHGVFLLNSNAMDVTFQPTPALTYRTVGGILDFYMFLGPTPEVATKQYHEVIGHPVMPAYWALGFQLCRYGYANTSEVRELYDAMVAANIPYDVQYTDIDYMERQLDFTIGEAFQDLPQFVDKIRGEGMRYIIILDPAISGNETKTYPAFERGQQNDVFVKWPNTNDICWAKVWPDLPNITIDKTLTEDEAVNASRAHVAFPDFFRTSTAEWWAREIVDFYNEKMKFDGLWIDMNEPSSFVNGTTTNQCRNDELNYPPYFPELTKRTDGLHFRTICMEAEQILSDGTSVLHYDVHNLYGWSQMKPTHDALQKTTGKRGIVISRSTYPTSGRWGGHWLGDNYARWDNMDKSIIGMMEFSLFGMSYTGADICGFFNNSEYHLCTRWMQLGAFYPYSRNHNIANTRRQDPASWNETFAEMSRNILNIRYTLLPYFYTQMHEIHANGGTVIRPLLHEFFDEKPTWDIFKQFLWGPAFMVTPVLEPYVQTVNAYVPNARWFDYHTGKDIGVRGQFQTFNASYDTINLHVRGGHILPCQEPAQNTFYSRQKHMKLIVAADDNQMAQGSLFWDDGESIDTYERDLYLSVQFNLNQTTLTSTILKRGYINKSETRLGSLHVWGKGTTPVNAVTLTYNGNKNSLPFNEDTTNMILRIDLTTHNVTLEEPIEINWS
T1 sequence (P14410 whole entry): as above

Row | SMILES | 15% inhibitory concentration (IC15) Isomaltase (human isomaltase; [4]) | 25% inhibitory concentration (IC25) Isomaltase (human isomaltase; [4]) | percent inhibition of isomaltase at maximum concentration tested (human isomaltase) | 15% inhibitory concentration (IC15) Sucrase (human sucrase) | 25% inhibitory concentration (IC25) Sucrase (human sucrase) | IC50 (human maltase) | IC50 (human sucrase) | percent inhibition of sucrase at maximum concentration tested (human sucrase) | 15% inhibitory concentration (IC15) Maltase (human maltase) | 25% inhibitory concentration (IC25) Maltase (human maltase) | percent inhibition of maltase at maximum concentration tested (human maltase) | also measured
1 | O=c1c(O)c(-c2ccc(O)c(O)c2)oc2cc(O)c(O)c(O)c12 [Quercetagetin, quercetagetin] | 5.9 ± 1.9 ^a µM | 20.3 ± 7.3 ^a µM | ND (29%) | 3.5 ± 1.1 ^b µM | 6.6 ± 1.8 ^b µM | – | 21.7 ± 5.3 µM | > 50% | 3.4 ± 0.9 ^ab µM | 6.7 ± 1.5 ^a µM | ND (48%) | –
2 | C[C@H]1O[C@H](O[C@H]2[C@H](O)[C@@H](O)[C@@H](O[C@H]3[C@H](O)[C@@H](O)C(O)O[C@@H]3CO)O[C@@H]2CO)[C@H](O)[C@@H](O)[C@@H]1N[C@H]1C=C(CO)[C@@H](O)[C@H](O)[C@H]1O (stereo partly drawn) [Acarbose, acarbose, reference compound] | 7.8 ± 0.7 ^a µM | 14.4 ± 1.1 ^a µM | 96% | 0.32 ± 0.05 ^a µM | 0.60 ± 0.09 ^a µM | 13.9 ± 2.3 µM | – | – | 2.4 ± 0.4 ^a µM | 4.6 ± 0.8 ^a µM | more than 50% | –
3 | O=c1c(O)c(-c2ccc(O)c(O)c2)oc2cc(O)cc(O)c12 [Quercetin, quercetin] | 104.0 ± 18.8 ^b µM | – | ND (18%) | 40.5 ± 5.1 ^d µM | 69.5 ± 8.2 ^d µM | – | 162 ± 13.6 µM | > 50% | 43.0 ± 3.1 ^d µM | 82.0 ± 4.6 ^c µM | – | IC50 (rat sucrase): > 400 µM; half-life [3]: ~ 24 h; IC50 (rat maltase): 281 µM
4 | O=c1c(O)c(-c2ccccc2)oc2cc(O)cc(O)c12 [Galangin, galangin] | 9.3 ± 1.2 ^a µM | – | – | 12.7 ± 2.1 ^c µM | 20.8 ± 5.5 ^c µM | – | – | – | 8.7 ± 1.1 ^abc µM | 17.6 ± 2.2 ^a µM | ND (22%) | inhibition at 25 µM (human isomaltase; read-out: percent inhibition of isomaltase at maximum concentration tested): 22%; inhibition at 25 µM (human sucrase; read-out: percent inhibition of sucrase at maximum concentration tested): 33%

More lines, main results first:

Row | 15% inhibitory concentration (IC15) Isomaltase (human isomaltase; [4]) | 25% inhibitory concentration (IC25) Isomaltase (human isomaltase; [4]) | percent inhibition of isomaltase at maximum concentration tested (human isomaltase) | 15% inhibitory concentration (IC15) Sucrase (human sucrase) | 25% inhibitory concentration (IC25) Sucrase (human sucrase) | IC50 (human maltase) | SMILES | IC50 (human sucrase) | percent inhibition of sucrase at maximum concentration tested (human sucrase) | 15% inhibitory concentration (IC15) Maltase (human maltase) | 25% inhibitory concentration (IC25) Maltase (human maltase) | percent inhibition of maltase at maximum concentration tested (human maltase) | also measured
5 | 118.6 ± 18.0 ^b µM | 241.9 ± 40.4 ^b µM | 71% | 41.2 ± 6.0 ^d µM | 72.9 ± 10.3 ^d µM | 186 ± 40.4 µM | O=C(O[C@@H]1Cc2c(O)cc(O)cc2O[C@@H]1c1cc(O)c(O)c(O)c1)c1cc(O)c(O)c(O)c1 [EGCG, (−)-epigallocatechin-3-gallate, reference compound] | 175 ± 60.1 µM | 100% | 21.7 ± 4.5 ^c µM | 43.8 ± 9.2 ^b µM | – | IC50 (human isomaltase; Caco-2/TC7 CFE, 20 mM isomaltose, 10 min 37 °C, mean ± SEM, n = 3, read-out: 50% inhibitory concentration (IC50) Isomaltase): 462 ± 60.3 µM; fold lower IC50 (human maltase expressed in yeast) than with Caco-2/TC7 as the enzyme origin [1]: 8–10 fold; IC50 [2]: 20 µM
6 | 12.5 ± 3.7 ^a µM | 34.0 ± 8.4 ^a µM | ND (27%) | 14.2 ± 3.7 ^c µM | 30.3 ± 8.2 ^c µM | – | O=c1c(O)c(-c2ccc(O)cc2)oc2cc(O)cc(O)c12 [Kaempferol, kaempferol] | – | ND (31%) | 19.0 ± 5.5 ^bc µM | – | ND (25%) | percent inhibition of isomaltase at maximum concentration tested (human isomaltase; listed as kaempferol): < 32%; yeast α-glucosidase inhibition (yeast α-glucosidase): 95%; percent inhibition of sucrase at maximum concentration tested (human sucrase; listed as kaempferol): < 32%; percent inhibition of maltase at maximum concentration tested (human maltase; listed as kaempferol): < 32%
